20 compounds from patent US12012392B2, “Sulfonamide carboxamide compounds” (Inflazome Limited, priority 2017, dated 2024) can be followed below.

The structures appear in SMILES notation. Read-outs that look alike come from different tables or passages of the source.

Data set [1] concerns the target T1, NLRP3 (Homo sapiens, UniProt Q96P20). Briefly: THP-1 cells pyroptosis assay. It is filed as cell-based. Also noted: Seed THP-1 cells (25,000 cells/well) containing 1.0 μg/ml LPS; host or cells: THP-1 cells, LPS-primed, nigericin-stimulated. The note with it: LPS 1 μg/ml, nigericin 5 μM, resazurin read-out. Put shortly:
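THP-1 cells (25,000/well) primed with 1 μg/ml LPS in serum-free RPMI, given compound (8-point half-log, 10 μM top, 0.1% DMSO) for 3 hrs, then nigericin 5 μM for 1 hr at 37° C. Viability of remaining cells read by resazurin (100 μM, 1–2 hrs) fluorescence; IC50 from 4-parameter fit.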

Data set [2] deals with T1, NLRP3. Nature of the data set: Human whole blood IL1β release assay. It is filed as cell-based. The arrangement: Plate out 80 μl of whole blood containing 1 μg/ml of LPS; from tissue; host or cells: human whole blood from healthy donors, LPS-primed, nigericin-stimulated. The note with it: LPS 1 μg/ml, nigericin 10 μM, IL-1β AlphaLisa, read-out: HWB IC50. The protocol: For systemic delivery, the ability to inhibit NLRP3 when the compounds are present within the bloodstream is of great importance. For this reason, the NLRP3 inhibitory activity of a number of compounds in human whole blood was investigated in accordance with the following protocol.
Human whole blood in Li-heparin tubes was obtained from healthy donors from a volunteer donor panel. • 1. Plate out 80 μl of whole blood containing 1 μg/ml of LPS in 96-well, clear bottom cell culture plate (Corning #3585) • 2. Add […] compound (8 points half-log dilution with 10 μM top dose) or vehicle (DMSO 0.1% FAC) to the appropriate wells • 3. Incubate for 3 hrs at 37° C., 5% CO2 • 4. Add 10 μl Nigericin (Sigma #N7143) (10 μM FAC) to all wells • 5. Incubate for 1 hr at 37° C., 5 CO2 • 6. At the end of the incubation period, spin plates at 300×g for 5 mins to pellet cells and remove 20 μl of supernatant and add to 96-well v-bottom plates for […] analysis (note: these plates containing the supernatants can be stored at −80° C. to be analysed at a later date) • 7. IL-1β was measured according to the manufacturer protocol (Perkin Elmer-AlphaLisa IL-1 Kit AL220F-5000) • 8. IC50 data is fitted to anon-linear regression equation (log inhibitor vs response-variable slope 4-parameters)
A general note: Bead proximity is the source of the signal in Alpha formats.

Data set [3] in a line: PK protocol (intravenous and oral administration). It is filed as in vivo, male Sprague Dawley rats. The following applies: male, Sprague Dawley, plasma, rat, intravenous; for Vd: read-out: Vdss. The protocol:
Pharmacokinetic parameters were determined in male Sprague Dawley rats (Charles River, UK, 250-350 g; or Vital River Laboratory Animal Technology Co Ltd, Beijing, China, 7-9 weeks old). Animals were individually housed during the study and maintained under a 12 h light/dark cycle. Animals had free access to food and water except that some orally dosed animals were food deprived overnight prior to the study. For intravenous administration, compounds were formulated as a solution in water or DMSO:PBS [10:90] in 2 mL/kg dosing volume and administered via tail vein. For oral administration, compounds were formulated as a solution in water or DMSO:water [10:90] in 5 mL/kg dosing volume and administered orally.
Serial blood samples (about 120-300 μL) were taken from each animal at each of 8 time-points post dose (0.083, 0.25, 0.5, 1, 2, 4, 8 and 24 h) or at each of 12 time-points post dose (0.03, 0.1, 0.17, 0.25, 0.5, 1, 2, 4, 6, 8, 12 and 24 h) or pre-dose and at each of 9 time-points post dose (0.25, 0.5, 1, 2, 4, 6, 8, 12 and 24 h). Samples were held on ice for no longer than 30 minutes before centrifugation (10,000 rpm (8,385 g) for 3 minutes; or 5,696 rpm (3,000 g) for 15 minutes) for plasma generation. Plasma was frozen on dry ice prior to bioanalysis. PK parameters were generated from LC-MS/MS data using Dotmatics or Phoenix WinNonlin 6.3 software.

T1 sequence (Q96P20 whole entry): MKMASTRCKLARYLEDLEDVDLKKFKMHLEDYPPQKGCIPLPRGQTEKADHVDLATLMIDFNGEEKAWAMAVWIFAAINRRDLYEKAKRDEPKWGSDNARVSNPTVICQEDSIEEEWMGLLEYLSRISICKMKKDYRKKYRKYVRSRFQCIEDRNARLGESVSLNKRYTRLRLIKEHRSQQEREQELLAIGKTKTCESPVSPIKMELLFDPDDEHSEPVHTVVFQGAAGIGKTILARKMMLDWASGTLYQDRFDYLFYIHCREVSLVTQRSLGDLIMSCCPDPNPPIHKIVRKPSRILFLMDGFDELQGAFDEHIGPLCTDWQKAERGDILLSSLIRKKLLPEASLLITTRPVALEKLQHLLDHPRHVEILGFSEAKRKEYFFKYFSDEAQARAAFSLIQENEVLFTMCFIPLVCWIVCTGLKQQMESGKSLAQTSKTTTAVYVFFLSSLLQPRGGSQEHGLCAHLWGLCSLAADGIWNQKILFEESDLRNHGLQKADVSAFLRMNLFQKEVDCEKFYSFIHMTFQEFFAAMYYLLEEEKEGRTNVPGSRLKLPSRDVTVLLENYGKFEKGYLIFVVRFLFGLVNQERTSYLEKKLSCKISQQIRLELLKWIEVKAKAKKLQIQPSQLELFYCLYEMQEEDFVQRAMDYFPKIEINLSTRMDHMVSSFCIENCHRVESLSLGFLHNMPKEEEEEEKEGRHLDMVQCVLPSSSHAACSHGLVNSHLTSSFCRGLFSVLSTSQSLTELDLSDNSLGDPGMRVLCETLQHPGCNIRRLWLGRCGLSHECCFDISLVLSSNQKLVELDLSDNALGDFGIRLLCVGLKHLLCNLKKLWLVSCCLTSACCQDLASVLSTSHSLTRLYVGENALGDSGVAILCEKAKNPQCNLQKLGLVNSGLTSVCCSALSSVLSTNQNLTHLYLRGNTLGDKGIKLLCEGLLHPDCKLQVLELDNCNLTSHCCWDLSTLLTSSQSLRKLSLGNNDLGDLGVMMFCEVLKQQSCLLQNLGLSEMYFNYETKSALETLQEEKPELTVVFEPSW

For orientation: IC50 means the concentration that gives 50% inhibition. The term AUC denotes concentration integrated over time. One may read the half-life as the time in which the quantity being followed falls by half. High values mean slow decline, low ones rapid decline. For the compound `C[C@H](O)Cn1ccc(S(=O)(=O)NC(=O)Nc2c3c(cc4c2CCC4)CCC3)n1` [Example 11, (S)—N-((1,2,3,5,6,7-Hexahydro-s-indacen-4-yl)carbamoyl)-1-(2-hydroxypropyl)-1H-pyrazole-3-sulfonamide], the IC50 in data set [1] fell in the range of 40 to 160 nM. For the same compound, the IC50 in data set [2] was under 400 nM. Further, in data set [3] (dose 1 mg/kg), the AUC turned out to be 7380 ng·h/mL, the clearance stood at 2.3 mL/min/kg, the half-life was 174 min and the Vd was found to be 0.36 L/kg.

Take `CC(O)C(C)n1ccc(S(=O)(=O)NC(=O)Nc2c3c(cc4c2CCC4)CCC3)n1` (racemic) [Example 26, N-((1,2,3,5,6,7-Hexahydro-s-indacen-4-yl)carbamoyl)-1-(3-hydroxybutan-2-yl)-1H-pyrazole-3-sulfonamide]: the half-inhibitory concentration (IC50) in data set [1] is 40 to 160 nM. Besides, in data set [2], the IC50 was under 400 nM. In data set [3] (dose 1.74 mg/kg), the AUC is 8060 ng·h/mL, the clearance came to 4.2 mL/min/kg, the half-life is 216 min and the Vd worked out at 0.6 L/kg.

Take `O=C(Nc1c2c(cc3c1CCC3)CCC2)NS(=O)(=O)c1ccn(C2CCOC2)n1` (centres unmarked) [Example 1, N-((1,2,3,5,6,7-Hexahydro-s-indacen-4-yl)carbamoyl)-1-(tetrahydrofuran-3-yl)-1H-pyrazole-3-sulfonamide]: in data set [1], the IC50 lay within 160 to 640 nM. Moreover, the IC50 in data set [2] is 800 to 1600 nM. In data set [3] (dose 1 mg/kg), the AUC stood at 8620 ng·h/mL, the clearance came out at 1.9 mL/min/kg, the half-life was 204 min and the Vd came to 0.43 L/kg.

Turning to `COC1(c2cc(S(=O)(=O)NC(=O)Nc3c4c(cc5c3CCC5)CCC4)nn2C2CC2)COC1` [Example 38, 1-Cyclopropyl-N-((1,2,3,5,6,7-hexahydro-s-indacen-4-yl)carbamoyl)-5-(3-methoxyoxetan-3-yl)-1H-pyrazole-3-sulfonamide], the IC50 in data set [1] was under 40 nM. In data set [2], the IC50 is under 400 nM. In data set [3] (dose 1 mg/kg), the AUC amounted to 3880 ng·h/mL, the clearance is 4.6 mL/min/kg, the half-life is 66 min and the Vd is 0.35 L/kg.

Consider `COC1(c2cc(S(=O)(=O)NC(=O)Nc3c4c(cc5c3CCC5)CCC4)nn2C(C)(C)C)COC1` [Example 39, 1-(tert-Butyl)-N-((1,2,3,5,6,7-hexahydro-s-indacen-4-yl)carbamoyl)-5-(3-methoxyoxetan-3-yl)-1H-pyrazole-3-sulfonamide], for which the IC50 lay within 40 to 160 nM in data set [1] and 1600 to 3200 nM in data set [2].

`COc1cc(-c2ccc3c(c2NC(=O)NS(=O)(=O)c2ccn(CC(C)(C)OC)n2)CCC3)ccn1` [Example 95]: the IC50 in data set [1] is under 40 nM; in data set [2] it was under 400 nM.

For the compound `CC[C@H](O)Cn1ccc(S(=O)(=O)NC(=O)Nc2c3c(cc4c2CCC4)CCC3)n1` [Example 21, (S)—N-((1,2,3,5,6,7-Hexahydro-s-indacen-4-yl)carbamoyl)-1-(2-hydroxybutyl)-1H-pyrazole-3-sulfonamide], the IC50 in data set [1] fell in the range of 40 to 160 nM; in data set [2] it was 800 to 1600 nM.

For `Cn1nc(S(=O)(=O)NC(=O)Nc2c3c(cc4c2CCC4)CCC3)cc1CC(C)(C)O` [Example 50, N-((1,2,3,5,6,7-Hexahydro-s-indacen-4-yl)carbamoyl)-5-(2-hydroxy-2-methylpropyl)-1-methyl-1H-pyrazole-3-sulfonamide], the IC50 in data set [1] was 40 to 160 nM; in data set [2] it was 800 to 1600 nM.

With `C[C@@H](O)Cn1cc(S(=O)(=O)NC(=O)Nc2c3c(cc4c2CCC4)CCC3)nn1` [Example 103], the 50% inhibitory concentration (IC50) in data set [1] lay within 160 to 640 nM; in data set [2], 800 to 1600 nM.

`COc1cc(-c2ccc3c(c2NC(=O)NS(=O)(=O)c2ccn(C4CCOC4)n2)CCC3)ccn1` (centres unmarked) [Example 97]: the figures for the IC50 in data set [1] and in data set [2] were 40 to 160 nM and under 400 nM, respectively.

Consider `Cn1nc(S(=O)(=O)NC(=O)Nc2c3c(cc4c2CCC4)CCC3)cc1C1(F)COC1` [Example 49, 5-(3-Fluorooxetan-3-yl)-N-((1,2,3,5,6,7-hexahydro-s-indacen-4-yl)carbamoyl)-1-methyl-1H-pyrazole-3-sulfonamide], for which the IC50 was in the range of 160 to 640 nM in data set [1] and 800 to 1600 nM in data set [2].

Take `O=C(Nc1c2c(cc3c1CCC3)CCC2)NS(=O)(=O)c1ccn(C2CCCC2O)n1` (racemic) [Example 22, N-((1,2,3,5,6,7-Hexahydro-s-indacen-4-yl)carbamoyl)-1-(2-hydroxycyclopentyl)-1H-pyrazole-1-sulfonamide]: the values for the IC50 in data set [1] and in data set [2] were 40 to 160 nM and 400 to 800 nM, respectively.

`C[C@@H](CO)n1ccc(S(=O)(=O)NC(=O)Nc2c3c(cc4c2CCC4)CCC3)n1` [Example 15, (S)—N-((1,2,3,5,6,7-Hexahydro-s-indacen-4-yl)carbamoyl)-1-(1-hydroxypropan-2-yl)-1H-pyrazole-3-sulfonamide]: the IC50 fell in the range of 40 to 160 nM in data set [1] and 800 to 1600 nM in data set [2].

`COc1cc(-c2ccc3c(c2NC(=O)NS(=O)(=O)c2ccn(CC(C)(C)O)n2)CCC3)ccn1` [Example 96]: the half-inhibitory concentration (IC50) is under 40 nM in data set [1] and under 400 nM in data set [2].

For the compound `CC(C)c1cc(F)cc(C(C)C)c1NC(=O)NS(=O)(=O)c1ccn(CC(C)(C)O)n1` [Example 18, N-((4-Fluoro-2,6-diisopropylphenyl)carbamoyl)-1-(2-hydroxy-2-methylpropyl)-1H-pyrazole-3-sulfonamide], the IC50 in data set [1] was in the range of 640 to 2560 nM; in data set [2], 1600 to 3200 nM.

As to `CC(C)c1cc(F)cc(-c2cccnc2)c1NC(=O)NS(=O)(=O)c1ccn(C[C@@H](C)O)n1` [Example 37, (R)—N-((4-Fluoro-2-isopropyl-6-(pyridin-3-yl)phenyl)carbamoyl)-1-(2-hydroxypropyl)-1H-pyrazole-3-sulfonamide], the IC50 was 160 to 640 nM in data set [1] and under 400 nM in data set [2].

With `COc1cc(-c2cc(F)cc(C(C)C)c2NC(=O)NS(=O)(=O)c2cc(C3(OC)COC3)n(C)n2)ccn1` [Example 40, N-((4-Fluoro-2-isopropyl-6-(2-methoxypyridin-4-yl)phenyl)carbamoyl)-5-(3-methoxyoxetan-3-yl)-1-methyl-1H-pyrazole-3-sulfonamide], the IC50 in data set [1] is 160 to 640 nM; in data set [2], under 400 nM.

For the compound `COC(C)(C)Cn1ccc(S(=O)(=O)NC(=O)Nc2c(C(C)C)cc(F)cc2C(C)C)n1` [Example 17, N-((4-Fluoro-2,6-diisopropylphenyl)carbamoyl)-1-(2-methoxy-2-methylpropyl)-1H-pyrazole-3-sulfonamide], the IC50 fell in the range of 640 to 2560 nM in data set [1] and 3200 to 10000 nM in data set [2].

Turning to `CC(C)c1cc(Cl)cc(C(C)C)c1NC(=O)NS(=O)(=O)c1ccn(C2CCOCC2)n1` [Example 32, N-((4-Chloro-2,6-diisopropylphenyl)carbamoyl)-1-(tetrahydro-2H-pyran-4-yl)-1H-pyrazole-3-sulfonamide], the IC50 in data set [1] was 640 to 2560 nM; in data set [2], 3200 to 10000 nM.

For `CC(C)n1nc(S(=O)(=O)NC(=O)Nc2c3c(cc4c2CCC4)CCC3)cc1C1(O)COC1` [Example 47, N-((1,2,3,5,6,7-Hexahydro-s-indacen-4-yl)carbamoyl)-5-(3-hydroxyoxetan-3-yl)-1-isopropyl-1H-pyrazole-3-sulfonamide], the half-inhibitory concentration (IC50) lay within 40 to 160 nM in data set [1] and 400 to 800 nM in data set [2].
